Data reported in patent US4622430A (priority 1982, dated 1986).
Like-named read-outs stand apart in the source and are kept apart here.

Legend:
[1] = test system: reserpine-induced catalepsy; test: Antagonism of reserpine-induced catalepsy in the mouse; type: in vivo, Male CD-1 mice; details: 0.75 h, read-out: ED50 (dose causing a reduction of the catalepsy score to 50% of the control group score), oral, reserpine 5 mg/kg i.p. 4 h before, scored 45 min after compound
[2] = Irwin dose-range study/acute toxicity in the mouse; design: species or system Male CD-1 mice; details: in vivo; for selectivity ratio: LD50 acute oral toxicity / ED50 reserpine catalepsy, read-out: Therapeutic index (LD50/ED50); for LD50 at 168 h: oral, 7 days observation, method of Horn
From the text: Irwin Dose-Range Study/Acute Toxicity in the Mouse
The animals were also observed daily for seven days post-dose and any mortalities noted. LD50 values were estimated using the method of Horn (Biometrics, 12, 311 (1956)).

[3] = test system: oxotremorine-induced tremor and salivation; test: Anti-oxotremorine test in the mouse; details: 0-3 scale; for Mean tremor score (± s.e.): vehicle 2,6-2,9; for Mean salivation score (± s.e.): vehicle 2,7-2,9
[4] = test system: CVS strain of rabies virus; type: in vivo, in Swiss-Webster mice
[5] = 10 mg/kg oral, 10 min post-oxotremorine
[6] = 100 mg/kg oral, 30 min post-oxotremorine

For CC12C3CC4C5CC(C(C53)C1NCc1ccccc1)C42 (stereo not shown) [Compound 16, 4-Benzylamino-3-methyl-(D3)-trishomocubane], which ED50 [1] is on record?
Its ED50 is 69.1 mg/kg.

And the selectivity ratio [2]?
The selectivity ratio was > 14.5.

And the LD50 at 168 h [2]?
Its LD50 at 168 h is > 1000 mg/kg.

What about the “Mean tremor score (± s.e.)” value [3, 5] of the same molecule?
Its value is 1,4 ± 0,2.

What about the “Mean salivation score (± s.e.)” value [3, 5] of the same molecule?
Its value is 1,3 ± 0,2.

Which ED50 [1] does the source give for NC1C2C3CC4C5CC(C42)C1(c1ccccc1)C53 (stereo not shown) [Compound 19, 4-amino-3-phenyl-(D3)-trishomocubane] here?
The ED50 was 32.2 mg/kg.

What about the selectivity ratio [2] of the same molecule?
Its selectivity ratio is 25.6.

What about the LD50 at 168 h [2] of the same molecule?
Its LD50 at 168 h is 825 mg/kg.

And the “Survival parameter (sum of days survived by six mice, up to 14 days each)” value (“Survival parameter” for short) ([4]; i.p. 10 mg/kg, 24 hours post inoculation, control 53 (compound 14), 59 (compound 19))?
The value was 66.

And the “Survival parameter” value ([4]; i.p. 10 mg/kg, 96 hours post inoculation, control 52 (compound 14), 61 (compound 19))?
Its value is 77.

And the “Survival parameter” value ([4]; i.p. 21,5 mg/kg, 24 hours post inoculation, control 53 (compound 14), 59 (compound 19))?
Its value is 65.

What about the “Survival parameter” value ([4]; i.p. 21,5 mg/kg, 96 hours post inoculation, control 52 (compound 14), 61 (compound 19)) of the same molecule?
The value was 71.

What about the “Survival parameter” value ([4]; i.p. 46,4 mg/kg, 24 hours post inoculation, control 53 (compound 14), 59 (compound 19)) of the same molecule?
The value was 66.

And the “Survival parameter” value ([4]; i.p. 46,4 mg/kg, 96 hours post inoculation, control 52 (compound 14), 61 (compound 19))?
The value was 68.

And the “Mean salivation score (± s.e.)” value ([3]; 30 mg/kg oral, 20 min post-oxotremorine)?
Its value is 1,0 ± 0,2.

Which “Mean tremor score (± s.e.)” value [3, 6] does the source give for CC12C3CC4C5CC(C(C53)C1NCCc1ccccc1)C42 (stereo not drawn) [Compound 17, 4-(β-phenyl)ethylamino-3-methyl-(D3)-trishomocubane] here?
Its value is 1,4 ± 0,2.

And the “Mean salivation score (± s.e.)” value [3, 6]?
The value was 1,0 ± 0,3.

What does the source list for NC1C2C3CC4C5CC(C1C53)C42 (stereo not shown) [Compound 11, 4-amino-(D3)-trishomocubane]?
ED50 [1]: 139 mg/kg; selectivity ratio [2]: 7.2; LD50 at 168 h [2]: 1000 mg/kg

For CNC1C2C3CC4C5CC(C42)C1(C)C53 (stereo not shown) [Compound 23, 3-methyl-4-methylamino-(D3)-trishomocubane], which “Mean salivation score (± s.e.)” value ([3]; 30 mg/kg oral, 30 min post-oxotremorine) is on record?
Its value is 0,8 ± 0,2.

What about the “Mean tremor score (± s.e.)” value ([3]; 100 mg/kg oral, 10 min post-oxotremorine) of the same molecule?
Its value is 1,2 ± 0,2.
